The values below come from patent US20260193293A1, “PEPTIDES CAPABLE OF INHIBITING PROTEIN-PROTEIN INTERACTIONS AT GABAB1A SUBUNIT AND USES THEREOF” (UNIVERSITY OF COPENHAGEN, priority 2022, published 2026).

Like-named read-outs stand apart in the source and are kept apart here. Non-standard residues stand in square brackets, D forms with d. Residues, ends and D or L forms follow the SMILES beside them. 4Pal = N[C@@H](Cc1ccncc1)C(=O)O

The target of this experiment is Sushi domains (SD1/2) protein. Nature of the experiment: Fluorescence polarization (FP) competition assay with AJAP-1probe, calculated Ki. The class given is binding. The method in brief:
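Competition against 25 nM TAMRA-labelled peptide probe binding SD1/2, in PBS pH 7.4 with 1% BSA at rt, read at 530/580 nm. IC50 from sigmoidal dose-response fits, at least triplicate; Ki calculated from IC50 using probe Kd from saturation binding.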

Setting [1] is: Table 4, truncation and elongation scans of APP epitope, read-out: Ki (nM) mean ± SEM.
The mark [2] stands for this setting: Table 11, deep mutational scanning validation variants of AJAP-1WT, read-out: Ki (nM) mean ± SEM.
Where [3] appears, read: CPP tagged peptides overview, SD1/2 binding affinity, mean ± SEM, n ≥ 3, read-out: Ki.
Where [4] appears, read: Table 14, CPPs tagged peptides, read-out: Ki (nM) mean ± SEM.
[5] abbreviates: Table 6, elongation and truncation scan of PIANP binding epitope, read-out: Ki (nM) mean ± SEM.

In the case of `CC(=O)N[C@@H](CCC(=O)O)C(=O)N[C@@H](CCC(=O)O)C(=O)N[C@@H](CC(=O)O)C(=O)N[C@@H](CC(=O)O)C(=O)N[C@@H](CO)C(=O)N[C@@H](CC(=O)O)C(=O)N[C@H](C(=O)N[C@@H](Cc1c[nH]c2ccccc12)C(=O)N[C@@H](Cc1c[nH]c2ccccc12)C(=O)NCC(=O)NCC(=O)N[C@@H](C)C(=O)N[C@@H](CC(=O)O)C(=O)N[C@H](C(N)=O)[C@@H](C)O)C(C)C` (Ac-EEDDSDVWWGGADT-NH2), under setting [1], the Ki was 585 ± 10 nM.

For the compound `CC[C@H](C)[C@H](NC(=O)[C@H](C)NC(=O)[C@H](Cc1c[nH]c2ccccc12)NC(=O)[C@@H]1CCCN1C(C)=O)C(=O)N[C@H](C(=O)N[C@@H](Cc1c[nH]c2ccccc12)C(=O)NCC(=O)N1CCC[C@H]1C(=O)N[C@@H](C)C(=O)N[C@H](C(=O)N[C@@H](CO)C(=O)N[C@@H](CCCNC(=N)N)C(=O)N[C@@H](CCC(=O)O)C(=O)N[C@@H](CC(=O)O)C(N)=O)C(C)C)C(C)C` [PWAIVWGPAVSRED] (Ac-PWAIVWGPAVSRED-NH2), the Ki (Table 9, Ala-, D-amino acids and N-methylation scans of PIANPWT, read-out: Ki (nM) mean ± SEM) was 1030 ± 26 nM.

As for `CC[C@H](C)[C@H](NC(=O)[C@H](Cc1ccccc1)NC(=O)[C@H](CCC(=O)O)NC(=O)[C@@H](NC(=O)[C@H](CCC(=O)O)NC(C)=O)[C@@H](C)O)C(=O)N[C@@H](C)C(=O)N[C@@H](Cc1c[nH]c2ccccc12)C(=O)NCC(=O)N1CCC[C@H]1C(=O)N[C@H](C(=O)NCC(=O)N[C@@H](CC(=O)O)C(=O)N[C@H](C(=O)N[C@@H](CC(=O)O)C(N)=O)C(C)C)[C@@H](C)O`, the Ki under setting [2] is 39 ± 1 nM.

As to `CC(=O)N[C@@H](CC(=O)O)C(=O)N[C@@H](CO)C(=O)N[C@@H](C)C(=O)N[C@@H](CC(=O)O)C(=O)N[C@@H](C)C(=O)N[C@@H](CCC(=O)O)C(=O)N[C@@H](CCC(=O)O)C(=O)N[C@@H](CC(=O)O)C(=O)N[C@@H](CC(=O)O)C(=O)N[C@@H](CO)C(=O)N[C@@H](CC(=O)O)C(=O)N[C@H](C(=O)N[C@@H](Cc1c[nH]c2ccccc12)C(=O)N[C@@H](Cc1c[nH]c2ccccc12)C(=O)NCC(N)=O)C(C)C` [Peptide 11] (Ac-DSADAEEDDSDVWWG-NH2), the Ki runs as follows: (AJAP-1probe, read-out: Ki) 5000 nM; (Table 3, SPOT hit validation and previously reported peptides, read-out: Ki (nM) mean ± SEM) 5030 ± 171 nM.

As to `CC(=O)N[C@@H](CCC(=O)O)C(=O)N[C@@H](CC(=O)O)C(=O)N[C@@H](CC(=O)O)C(=O)N[C@@H](CO)C(=O)N[C@@H](Cc1ccncc1)C(=O)N[C@H](C(=O)N[C@@H](Cc1c[nH]c2ccccc12)C(=O)N[C@@H](Cc1c[nH]c2ccccc12)C(=O)NCC(=O)NCC(=O)N[C@@H](C)C(=O)N[C@@H](CC(=O)O)C(=O)N[C@H](C(=O)N[C@@H](CC(=O)O)C(N)=O)[C@@H](C)O)C(C)C` (Ac-EDDS[4Pal]VWWGGADTD-NH2), the Ki (Table 16, ncAAs incorporated peptides, read-out: Ki (nM) mean ± SEM) is 424 ± 13 nM.

As to `CC[C@H](C)[C@H](NC(=O)[C@H](Cc1ccccc1)NC(=O)[C@H](CCC(=O)O)NC(=O)[C@@H](NC(=O)[C@H](CCC(=O)O)NC(C)=O)[C@@H](C)O)C(=O)N[C@@H](C)C(=O)N[C@@H](Cc1c[nH]c2ccccc12)C(=O)NCC(=O)N1CCC[C@H]1C(=O)N[C@H](C(=O)NCC(=O)N[C@@H](CC(=O)O)C(=O)N[C@@H](CCC(=O)O)C(=O)N[C@@H](Cc1c[nH]cn1)C(N)=O)[C@@H](C)O`, the Ki under setting [2] was 39 ± 2 nM.

Take `CC[C@H](C)[C@H](NC(=O)[C@H](Cc1c[nH]c2ccccc12)NC(=O)[C@H](CC(=O)O)NC(=O)[C@H](CC(=O)O)NC(=O)[C@H](CC(=O)O)NC(=O)[C@H](CCC(=O)O)NC(C)=O)C(=O)N[C@@H](CC(=O)O)C(=O)N[C@@H](Cc1c[nH]c2ccccc12)C(=O)NCC(=O)N1CCC[C@H]1C(=O)N[C@H](C(=O)N[C@@H](CO)C(=O)N[C@@H](CC(=O)O)C(=O)N[C@@H](CC(=O)O)C(=O)N[C@@H](CC(=O)O)C(=O)N[C@@H](CCC(=O)O)C(=O)N[C@@H](C)C(=O)N[C@@H](C)C(=O)N[C@@H](C)C(=O)N[C@@H](CCCCN)C(=O)N[C@@H](CCCNC(=N)N)C(=O)N[C@@H](CCCNC(=N)N)C(=O)N[C@@H](CCCNC(=N)N)C(=O)N[C@@H](CCCNC(=N)N)C(=O)N[C@@H](CCCNC(=N)N)C(=O)N[C@@H](CCCNC(=N)N)C(=O)N[C@@H](CCCNC(=N)N)C(=O)N[C@@H](CCCNC(=N)N)C(N)=O)[C@@H](C)O` [Peptide 17-RL-R8] (Ac-EDDDWIDWGPTSDDDEAAAKRRRRRRRR-NH2): the Ki reads like this: under setting [3], 139 ± 2 nM; under setting [4], 139 ± 2 nM.

`CC(=O)N[C@@H](CO)C(=O)N[C@@H](CC(=O)O)C(=O)N[C@H](C(=O)N[C@@H](Cc1c[nH]c2ccccc12)C(=O)N[C@@H](Cc1c[nH]c2ccccc12)C(=O)NCC(=O)NCC(=O)N[C@@H](C)C(=O)N[C@@H](CC(=O)O)C(=O)N[C@H](C(=O)N[C@@H](CC(=O)O)C(=O)N[C@@H](Cc1ccc(O)cc1)C(=O)N[C@@H](C)C(=O)N[C@@H](CC(=O)O)C(N)=O)[C@@H](C)O)C(C)C` (Ac-SDVWWGGADTDYAD-NH2): under setting [1], the Ki is 2950 ± 82 nM.

Take `CC[C@H](C)[C@H](NC(=O)[C@H](Cc1c[nH]c2ccccc12)NC(=O)[C@H](CC(=O)O)NC(=O)[C@H](CC(=O)O)NC(=O)[C@H](CC(=O)O)NC(=O)[C@H](CCC(=O)O)NC(=O)[C@H](CCCNC(=N)N)NC(=O)[C@H](CCCNC(=N)N)NC(=O)[C@H](CCCNC(=N)N)NC(=O)[C@H](CCC(N)=O)NC(=O)[C@H](CCCNC(=N)N)NC(=O)[C@H](CCCNC(=N)N)NC(=O)[C@H](CCCCN)NC(=O)[C@H](CCCCN)NC(=O)[C@H](CCCNC(=N)N)NC(=O)CNC(=O)[C@H](Cc1ccc(O)cc1)NC(C)=O)C(=O)N[C@@H](CC(=O)O)C(=O)N[C@@H](Cc1c[nH]c2ccccc12)C(=O)NCC(=O)N1CCC[C@H]1C(=O)N[C@H](C(=O)N[C@@H](CO)C(=O)N[C@@H](CC(=O)O)C(=O)N[C@@H](CC(=O)O)C(=O)N[C@@H](CC(=O)O)C(N)=O)[C@@H](C)O` [Tat-17] (Ac-YGRKKRRQRRREDDDWIDWGPTSDDD-NH2): the Ki by setting is: under setting [3], 50 ± 2 nM; under setting [4], 49.9 ± 2 nM.

For the compound `CC(=O)N[C@@H](CCC(=O)O)C(=O)N[C@@H](CC(=O)O)C(=O)N[C@@H](CC(=O)O)C(=O)N[C@@H](CO)C(=O)N[C@@H](CC(=O)O)C(=O)N[C@H](C(=O)N[C@@H](Cc1c[nH]c2ccccc12)C(=O)N[C@@H](Cc1c[nH]c2ccccc12)C(=O)NCC(=O)NCC(=O)N[C@@H](C)C(=O)N[C@@H](CC(=O)O)C(=O)N[C@@H](CCC(=O)O)C(=O)N[C@@H](CC(=O)O)C(N)=O)C(C)C` [EDDSDVWWGGADED] (Ac-EDDSDVWWGGADED-NH2), for the setting “Table 10, deep mutational scanning validation variants of APPWT, read-out: Ki (nM) mean ± SEM”, the Ki is 337 ± 10 nM.

With `CC[C@H](C)[C@H](NC(=O)[C@H](Cc1ccccc1)NC(=O)[C@H](CCC(=O)O)NC(=O)[C@@H](NC(=O)[C@H](CCC(=O)O)NC(C)=O)[C@@H](C)O)C(=O)N[C@@H](C)C(=O)N[C@@H](Cc1c[nH]c2ccccc12)C(=O)NCC(=O)N1CCC[C@H]1C(=O)N[C@H](C(=O)N[C@@H](Cc1c[nH]cn1)C(=O)N[C@@H](CC(=O)O)C(=O)N[C@@H](CCC(=O)O)C(=O)N[C@@H](CC(=O)O)C(N)=O)[C@@H](C)O` [ETEFIAWGPTHDED] (Ac-ETEFIAWGPTHDED-NH2), under setting [2], the Ki was 30 ± 1 nM.

As for `CC[C@H](C)[C@H](NC(=O)[C@H](C)NC(=O)[C@H](Cc1c[nH]c2ccccc12)NC(=O)[C@@H]1CCCN1C(C)=O)C(=O)N[C@H](C(=O)N[C@@H](Cc1c[nH]c2ccccc12)C(=O)NCC(N)=O)C(C)C` [PWAIVWG] (Ac-PWAIVWG-NH2), the Ki under setting [5] was 579 ± 21 nM.

For `CC(=O)N[C@@H](CO)C(=O)N[C@@H](C)C(=O)N[C@@H](CC(=O)O)C(=O)N[C@@H](C)C(=O)N[C@@H](CCC(=O)O)C(=O)N[C@@H](CCC(=O)O)C(=O)N[C@@H](CC(=O)O)C(=O)N[C@@H](CC(=O)O)C(=O)N[C@@H](CO)C(=O)N[C@@H](CC(=O)O)C(=O)N[C@H](C(=O)N[C@@H](Cc1c[nH]c2ccccc12)C(=O)N[C@@H](Cc1c[nH]c2ccccc12)C(=O)NCC(=O)NCC(=O)N[C@@H](C)C(=O)N[C@@H](CC(=O)O)C(=O)N[C@H](C(=O)N[C@@H](CC(=O)O)C(=O)N[C@@H](Cc1ccc(O)cc1)C(=O)N[C@@H](C)C(=O)N[C@@H](CC(=O)O)C(N)=O)[C@@H](C)O)C(C)C` (Ac-SADAEEDDSDVWWGGADTDYAD-NH2), under setting [1], the Ki was 284 ± 5 nM.

Turning to `CC[C@H](C)[C@H](NC(=O)[C@H](Cc1c[nH]c2ccccc12)NC(=O)[C@H](CC(=O)O)NC(=O)[C@H](CC(=O)O)NC(=O)[C@H](CC(=O)O)NC(=O)[C@H](CCC(=O)O)NC(C)=O)C(=O)N[C@@H](CC(=O)O)C(=O)N[C@@H](Cc1c[nH]c2ccccc12)C(=O)NCC(=O)N1CCC[C@H]1C(=O)N[C@H](C(=O)N[C@@H](CO)C(=O)N[C@@H](CC(=O)O)C(=O)N[C@@H](CC(=O)O)C(=O)N[C@@H](CC(=O)O)C(=O)N[C@@H](CCCNC(=N)N)C(=O)N[C@@H](CCCNC(=N)N)C(=O)N[C@@H](CCCNC(=N)N)C(=O)N[C@@H](CCCNC(=N)N)C(=O)N[C@@H](CCCNC(=N)N)C(=O)N[C@@H](CCCNC(=N)N)C(=O)N[C@@H](CCCNC(=N)N)C(=O)N[C@@H](CCCNC(=N)N)C(N)=O)[C@@H](C)O` [Peptide 17-R8] (Ac-EDDDWIDWGPTSDDDRRRRRRRR-NH2), the Ki reads like this: under setting [3], 123 ± 4 nM; under setting [4], 123 ± 4 nM.

In the case of `CC[C@H](C)[C@H](NC(=O)[C@H](C)NC(=O)[C@H](Cc1c[nH]c2ccccc12)NC(=O)[C@@H]1CCCN1C(=O)[C@H](Cc1ccc(O)cc1)NC(=O)[C@H](CCC(N)=O)NC(=O)[C@H](CO)NC(=O)[C@H](CO)NC(=O)[C@@H]1CCCN1C(C)=O)C(=O)N[C@H](C(=O)N[C@@H](Cc1c[nH]c2ccccc12)C(=O)NCC(=O)N1CCC[C@H]1C(=O)N[C@H](C(=O)N[C@H](C(=O)N[C@@H](CO)C(=O)N[C@@H](CCCNC(=N)N)C(=O)N[C@@H](CCC(=O)O)C(=O)N[C@@H](CC(=O)O)C(=O)NCC(N)=O)C(C)C)[C@@H](C)O)C(C)C` (Ac-PSSQYPWAIVWGPTVSREDG-NH2), the Ki under setting [5] was above 62500 nM.
